# In PMC4255642 (Biochemistry, 2014):
# Legend:
# [1] = target: βR182A mutant membrane-bound F1Fo ATP synthase (Escherichia coli, UniProt P0ABB0+P0ABB4, R183A/Y332W); assay type: biochemical; settings: sodium azide 30 min preincubation
# [2] = target: αT349Q mutant membrane-bound F1Fo ATP synthase (Escherichia coli, UniProt P0ABB0+P0ABB4, T349Q/Y332W); assay type: biochemical; settings: sodium azide 30 min preincubation
# [3] = target: αT349D mutant membrane-bound F1Fo ATP synthase (Escherichia coli, UniProt P0ABB0+P0ABB4, T349D/Y332W); assay type: biochemical; settings: sodium azide 30 min preincubation
# [4] = target: αT349R/βR182A double mutant membrane-bound F1Fo ATP synthase (Escherichia coli, UniProt P0ABB0+P0ABB4, R183A/T349R/Y332W); assay type: biochemical; settings: sodium azide 30 min preincubation
# [5] = target: αT349A mutant membrane-bound F1Fo ATP synthase (Escherichia coli, UniProt P0ABB0+P0ABB4, T349A/Y332W); assay type: biochemical; settings: sodium azide 30 min preincubation
# [6] = target: αT349R mutant membrane-bound F1Fo ATP synthase (Escherichia coli, UniProt P0ABB0+P0ABB4, T349R/Y332W); assay type: biochemical; settings: sodium azide 30 min preincubation
# [7] = tested on: wild-type and mutant membrane-bound F1Fo ATP synthase; assay type: biochemical; settings: wild type and six mutants; 150 μM NBD-Cl 1 h, then 4 mM DTT 1 h
# F1Fo-bound membranes = assay: Control: protecting ligand without added NBD-Cl, ATPase activity; assay type: biochemical, Escherichia coli; settings: MgADP up to 10 mM, Pi up to 50 mM
compound,measurement,setting,value
"[N-]=[N+]=[N-].[Na+] [azide, sodium azide]",residual ATPase activity with azide,[1],~72%
same,residual ATPase activity with azide,[2],~90%
same,residual ATPase activity with azide,[3],~90%
same,residual ATPase activity with azide,[4],~21%
same,residual ATPase activity with azide,[5],~53%
same,residual ATPase activity with azide,[6],~40%
"O[C@@H](CS)[C@@H](O)CS (racemic) [DTT, dithiothreitol]",reversal of NBD-Cl inactivation of ATPase activity by DTT,[7],completely restored full activity in all cases
Nc1ncnc2c1ncn2[C@@H]1O[C@H](COP(=O)([O-])OP(=O)([O-])O)[C@@H](O)[C@H]1O.[Mg+2] [MgADP],inhibitory effect of ligand alone on ATPase activity,F1Fo-bound membranes,Neither MgADP (up to 10 mM) nor Pi (up to 50 mM) had any inhibitory effect alone
"O=P(O)(O)O [Pi, inorganic phosphate]",inhibitory effect of ligand alone on ATPase activity,F1Fo-bound membranes,Neither MgADP (up to 10 mM) nor Pi (up to 50 mM) had any inhibitory effect alone
